Experiments:
Type in all cases: in vivo, human
[1] = test system: patients diagnosed with generalized anxiety disorder; test: Acute anxiety symptom scores (HAM-A, COVI, CGI) after delivery to the vomeronasal organ of patients with generalized anxiety disorder
[2] = test system: patients diagnosed with generalized social phobia; test: Phase-2 randomized double-blind study: public speaking and social interaction challenges in social phobia patients, intranasal spray
Source text: A Phase-2 Randomized, Double-blind, Crossover Study of the Use of Single Doses of [3β]-Androsta-4,16-dien-3-ol for Management of the Symptoms of Social phobia
The following describes a study of the effects of the vomeropherin [3β]-androsta-4,16-dien-3-ol on human female patients suffering from social phobia.
The study comprised 40 patients with clinical diagnosis of Social Phobia. Each patient was randomly assigned to one of the following double-blind treatment groups: 800 nanogram [3β]-Androsta-4,16-dien-3-ol or placebo delivered intranasally in spray form. Each patient participated in the Treatment Phase as follows.
First Visit: the patient visited the study center and the following activities were conducted during this visit: Pre-Challenge: After arrival at the study center, the patient completed self-reports of their usual anxiety symptoms. Public Speaking Challenge: The patient was administered a spray (50 microliters) of placebo to each nostril, and the procedures for the Public Speaking Challenge were then explained to the patient. The patient was given four minutes to prepare one of several topics for a four-minute speech, without notes, in front of an audience of several people who evaluated the speech and videotaped it. Immediately after completing the preparation period, the patient completed self-reports of their anticipatory anxiety and the Investigator then rated the patient's anticipatory anxiety. The patient gave their speech. Immediately after completing the speech, the patient completed self-reports of anxiety experienced during the speech. The Investigator then rated the anxiety experienced by the patient. Social Interaction Challenge: Approximately one hour after completion of the Public Speaking Challenge, the patient was administered another dose of placebo in each nostril, and the procedures for a Social Interaction Challenge appropriate for one of the patient's most-feared social interaction situations were then described to the patient. Then, the patient completed self-reports of their anticipatory anxiety and the Investigator rated the patient's anticipatory anxiety. Then, the patient participated in a four-minute mock social interaction while being observed by several raters and videotaped. Immediately after completing the social interaction, the patient completed self-reports of anxiety experienced during the interaction. Then, the Investigator rated the anxiety experienced by the patient. Those patients that during the first visit responded to placebo during the public speaking or the social interaction challenge were terminated from the study at that time. Patients non-responding to placebo during the first visit participated in a second visit where they were randomly dosed again with placebo, or with 800 nanograms androsta-4,16-dien-3β-ol per nostril (total dose=1,600 nanograms) delivered in spray form. Each patient was challenged and also the anxiety symptoms were scores using the same procedure performed during first visit.
The mean score obtained during the first visit (baseline scores) for each, anticipatory public speaking, performance public speaking, anticipatory social interaction and performance social interaction, was subtracted from the mean score (same parameter) obtained during the second visit. The result is a measure of symptom improvement.

vomeronasal receptors = test: Electrovomerogram dose-response (mass receptor potential of the vomeronasal receptors), local aerosol delivery with Multifunctional Miniprobe
Protocol: The effective amount of androsta-4,16-dien-3β-ol administered was determined in dose-response studies where the amplitude of the mass receptor potential of the vomeronasal receptors (electrogram of the vomeronasal organ or electrovomerogram) was recorded from volunteers diagnosed with generalized anxiety disorder (GAD), while locally delivering different concentrations of the steroid in aerosol form, using a Multifunctional Miniprobe® described in U.S. Pat. No. 5,303,703. This electrovomerogram allows precise measuring of the concentration dependent effect of locally delivered androsta-4,16-dien-3β-ol to vomeronasal receptors, and calculation of the half-maximal concentration, the Effective Concentration 50 (EC50).
Androsta-4,16-dien-3β-ol was delivered directly to the vomeronasal organ pit of anxious patients using the Multifunctional Miniprobe®, consisting of a concentric arrangement of Teflon® tubes having an inner non-polarized silver wire recording-electrode. […] The electrovomerogram recorded with the surface silver-wire electrode was electronically amplified and continuously monitored in a computer and a dose-response curve was obtained by plotting the peak amplitude of electrovomerograms produced by several different amounts of androsta-4,16-dien-3β-ol (ranging from 0 (control) to 1000 picograms). […]

[3] = 1 nanogram to the vomeronasal organ, GAD patients n = 20
[4] = 1600 nanogram intranasally, n = 40, Mean Baseline Score − Mean Score After Treatment

## C[C@@]12C=CC[C@H]1[C@@H]1CCC3=C[C@@H](O)CC[C@]3(C)[C@H]1CC2 [androsta-4,16-dien-3β-ol]
[1]; [3]
  Mean acute symptom improvement, CGI (Mean Baseline Score − Mean Score after Treatment): 1.17
  Mean acute symptom improvement, COVI (Mean Baseline Score − Mean Score after Treatment): 2.8
  Mean acute symptom improvement, HAM-A (Mean Baseline Score − Mean Score after Treatment): 10.6
[1]; concentrations above the EC50, 20 human female GAD patients, effect lasting 30 minutes after intranasal administration
  Acute anxiety symptoms scores (HAM-A, COVI, CGI): significantly reduced
[2]; 5 minutes after administration, Social Interaction and Public Speaking
  Anticipatory and Performance anxiety scores: notably and significantly decreased
[2]; [4]
  Mean Symptom Improvement, Anticipatory Public Speaking Anxiety: 10.417
  Mean Symptom Improvement, Anticipatory Social Interaction Anxiety: 12.166
  Mean Symptom Improvement, Performance Public Speaking Anxiety: 26.294
  Mean Symptom Improvement, Performance Social Interaction Anxiety: 14.197
[2]; second visit versus first-visit baseline scores
  Symptom improvement versus placebo: much greater and significant symptom improvement than placebo
Vomeronasal receptors; delivered directly to vomeronasal organ pit, aerosol from propylene glycol, GAD volunteers
  EC50 (half-maximal concentration, electrovomerogram peak amplitude): 0.5 nanograms
Vomeronasal receptors; set equal to EC50 (linear receptor occupancy-response, model of A. J. Clark)
  KD: 0.5 ng

Reference: patent US8722652B2, “Acute treatment of social phobia” (Pherin Pharmaceuticals, Inc., priority 2005, dated 2014)
